Columns and labels:
CK2α = CK2α (Homo sapiens, UniProt P68400); assay: CK2 radioactive kinase assay (32P incorporation into peptide substrate); assay type: biochemical; conditions: 100 μM ATP; for % remaining CK2 activity (10 μM): 10 μM compound
Procedure: 1. Materials and Methods • Effect of compounds of formula (I) on CK2 activity is measured according to Prudent et al. (Prudent, R. et al. (2008) Mol Cell Biochem 316(1-2): 71-85): compounds were tested in a radioactive assay performed in a final volume of 18 μL containing 3 μL of compounds at the indicated concentrations, 3 μL, of CK2α (36 ng) and a mixture containing 100 μM of peptide substrate ([…], SEQ ID No: 1), 10 mM MgCl2, and 100 μM [γ-^32P]-ATP. Assays were performed at room temperature for 5 min before termination by the addition of 60 μL of 4% TCA. ^32P incorporation into the peptide substrate was determined as previously described in Filhol et al. (Biochemistry 29: 9928-36, 1990). • Effect of compounds of formula (I) on c-kit activity is measured according to the manufacturer's recommendations (Millipore, reference 14-559): in a final reaction volume of 25 μL, c-Kit (5-10 mU) is incubated with 8 mM MOPS pH 7.0, 0.2 mM EDTA, 10 mM MnCl2, 25 μM ATP, 0.1 mg/mL poly(Glu, Tyr) 4:1, 10 mM MgAcetate and [γ-33P-ATP] (specific activity approx. 500 cpm/pmol, concentration as required). The reaction is initiated by the addition of the MgATP mix. After incubation for 40 minutes at room temperature, the reaction is stopped by the addition of 5 μL of a 3% phosphoric acid solution. 10 μL of the reaction is then spotted onto a Filtermat A and washed three times for 5 minutes in 75 mM phosphoric acid and once in methanol prior to drying and scintillation counting. • Effect of compounds of formula (I) on topoisomerase II activity is measured according to the manufacturer's recommendations (Vaxron, TA-001): in a final reaction volume of 10 μL, 1U topoisomerase IIα is incubated with 0.1M Tris-HCl, pH 8.0, 2 mM DTT, 20 mM MgCl2, 4 mM ATP, 0.2 M NaCl, 2 μg BSA, 500 ng Kinetoplast DNA and compounds to be assayed (from 10 mM stock solution in DMSO, final concentration of DMSO<1%). The reaction is initiated by the addition of topoisomerase IIα. After incubation for 15 min at 37° C., reaction is stopped by addition of 1 μL of stop solution (3% SDS, 1.5 mg·mL^−1 Proteinase K). Following an incubation of 30 minutes at 37° C., reaction mixture is resolved on an agarose gel (1% agarose) and DNA topoisomers are quantified by densitometric analysis. • Effect of compounds of formula (I) on DNA intercalation. DNA intercalation was performed using FID (Fluorescence Intercalator Displacement). This assay based on the loss of fluorescence of a DNA-bound intercalator (thiazole orange) upon displacement by a DNA-binding molecule. Briefly, the double stranded oligonucleotide […] […] After 20 minutes incubation, fluorescence is measured (excitation: 490 nm, emission: 520 nm). In this assay, compound auto-fluorescence was negative.

c-Kit = biological target: T1, c-Kit (Homo sapiens, UniProt P10721); assay: c-kit kinase activity assay (Millipore 14-559); assay type: biochemical; conditions: 10 μM compound
T1 construct: purchased Millipore 14-559
T1 sequence (P10721 26-976): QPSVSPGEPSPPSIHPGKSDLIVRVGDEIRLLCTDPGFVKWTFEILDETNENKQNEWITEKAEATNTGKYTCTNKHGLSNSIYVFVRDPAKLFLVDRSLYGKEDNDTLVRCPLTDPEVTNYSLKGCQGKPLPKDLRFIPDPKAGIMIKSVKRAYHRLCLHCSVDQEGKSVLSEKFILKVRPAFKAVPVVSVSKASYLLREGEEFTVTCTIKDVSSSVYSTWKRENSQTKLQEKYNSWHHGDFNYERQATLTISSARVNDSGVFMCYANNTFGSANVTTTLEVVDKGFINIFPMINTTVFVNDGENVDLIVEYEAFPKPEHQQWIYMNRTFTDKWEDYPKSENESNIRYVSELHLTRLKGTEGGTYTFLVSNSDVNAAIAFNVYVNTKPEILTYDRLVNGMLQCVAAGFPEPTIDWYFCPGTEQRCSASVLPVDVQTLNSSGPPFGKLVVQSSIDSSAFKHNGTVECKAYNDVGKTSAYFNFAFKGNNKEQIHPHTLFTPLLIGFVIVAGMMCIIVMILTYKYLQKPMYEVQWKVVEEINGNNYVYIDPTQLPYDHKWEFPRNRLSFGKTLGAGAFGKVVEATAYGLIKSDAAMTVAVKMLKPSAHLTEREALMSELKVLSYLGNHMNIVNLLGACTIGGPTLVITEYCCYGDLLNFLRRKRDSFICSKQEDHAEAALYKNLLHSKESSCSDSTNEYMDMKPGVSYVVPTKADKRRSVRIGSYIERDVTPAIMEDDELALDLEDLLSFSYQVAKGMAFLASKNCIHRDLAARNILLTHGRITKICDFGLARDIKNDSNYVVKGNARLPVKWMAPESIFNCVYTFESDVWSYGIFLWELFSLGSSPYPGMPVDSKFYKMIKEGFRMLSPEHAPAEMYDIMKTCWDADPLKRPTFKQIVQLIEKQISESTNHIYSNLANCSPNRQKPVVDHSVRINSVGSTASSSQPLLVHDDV
Procedure: (§1) 1. Materials and Methods • Effect of compounds of formula (I) on CK2 activity is measured according to Prudent et al. (Prudent, R. et al. (2008) Mol Cell Biochem 316(1-2): 71-85): compounds were tested in a radioactive assay performed in a final volume of 18 μL containing 3 μL of compounds at the indicated concentrations, 3 μL, of CK2α (36 ng) and a mixture containing 100 μM of peptide substrate ([…], SEQ ID No: 1), 10 mM MgCl2, and 100 μM [γ-^32P]-ATP. Assays were performed at room temperature for 5 min before termination by the addition of 60 μL of 4% TCA. ^32P incorporation into the peptide substrate was determined as previously described in Filhol et al. (Biochemistry 29: 9928-36, 1990). • Effect of compounds of formula (I) on c-kit activity is measured according to the manufacturer's recommendations (Millipore, reference 14-559): in a final reaction volume of 25 μL, c-Kit (5-10 mU) is incubated with 8 mM MOPS pH 7.0, 0.2 mM EDTA, 10 mM MnCl2, 25 μM ATP, 0.1 mg/mL poly(Glu, Tyr) 4:1, 10 mM MgAcetate and [γ-33P-ATP] […] Following an incubation of 30 minutes at 37° C., reaction mixture is resolved on an agarose gel (1% agarose) and DNA topoisomers are quantified by densitometric analysis. • Effect of compounds of formula (I) on DNA intercalation. DNA intercalation was performed using FID (Fluorescence Intercalator Displacement). […] In this assay, compound auto-fluorescence was negative.

topoisomerase IIα = biological target: T2, topoisomerase IIα (Homo sapiens, UniProt P11388); assay: topoisomerase II activity assay (kinetoplast DNA, Vaxron TA-001); assay type: biochemical; conditions: 10 μM compound
T2 construct: purchased Vaxron TA-001
T2 sequence (P11388 whole entry): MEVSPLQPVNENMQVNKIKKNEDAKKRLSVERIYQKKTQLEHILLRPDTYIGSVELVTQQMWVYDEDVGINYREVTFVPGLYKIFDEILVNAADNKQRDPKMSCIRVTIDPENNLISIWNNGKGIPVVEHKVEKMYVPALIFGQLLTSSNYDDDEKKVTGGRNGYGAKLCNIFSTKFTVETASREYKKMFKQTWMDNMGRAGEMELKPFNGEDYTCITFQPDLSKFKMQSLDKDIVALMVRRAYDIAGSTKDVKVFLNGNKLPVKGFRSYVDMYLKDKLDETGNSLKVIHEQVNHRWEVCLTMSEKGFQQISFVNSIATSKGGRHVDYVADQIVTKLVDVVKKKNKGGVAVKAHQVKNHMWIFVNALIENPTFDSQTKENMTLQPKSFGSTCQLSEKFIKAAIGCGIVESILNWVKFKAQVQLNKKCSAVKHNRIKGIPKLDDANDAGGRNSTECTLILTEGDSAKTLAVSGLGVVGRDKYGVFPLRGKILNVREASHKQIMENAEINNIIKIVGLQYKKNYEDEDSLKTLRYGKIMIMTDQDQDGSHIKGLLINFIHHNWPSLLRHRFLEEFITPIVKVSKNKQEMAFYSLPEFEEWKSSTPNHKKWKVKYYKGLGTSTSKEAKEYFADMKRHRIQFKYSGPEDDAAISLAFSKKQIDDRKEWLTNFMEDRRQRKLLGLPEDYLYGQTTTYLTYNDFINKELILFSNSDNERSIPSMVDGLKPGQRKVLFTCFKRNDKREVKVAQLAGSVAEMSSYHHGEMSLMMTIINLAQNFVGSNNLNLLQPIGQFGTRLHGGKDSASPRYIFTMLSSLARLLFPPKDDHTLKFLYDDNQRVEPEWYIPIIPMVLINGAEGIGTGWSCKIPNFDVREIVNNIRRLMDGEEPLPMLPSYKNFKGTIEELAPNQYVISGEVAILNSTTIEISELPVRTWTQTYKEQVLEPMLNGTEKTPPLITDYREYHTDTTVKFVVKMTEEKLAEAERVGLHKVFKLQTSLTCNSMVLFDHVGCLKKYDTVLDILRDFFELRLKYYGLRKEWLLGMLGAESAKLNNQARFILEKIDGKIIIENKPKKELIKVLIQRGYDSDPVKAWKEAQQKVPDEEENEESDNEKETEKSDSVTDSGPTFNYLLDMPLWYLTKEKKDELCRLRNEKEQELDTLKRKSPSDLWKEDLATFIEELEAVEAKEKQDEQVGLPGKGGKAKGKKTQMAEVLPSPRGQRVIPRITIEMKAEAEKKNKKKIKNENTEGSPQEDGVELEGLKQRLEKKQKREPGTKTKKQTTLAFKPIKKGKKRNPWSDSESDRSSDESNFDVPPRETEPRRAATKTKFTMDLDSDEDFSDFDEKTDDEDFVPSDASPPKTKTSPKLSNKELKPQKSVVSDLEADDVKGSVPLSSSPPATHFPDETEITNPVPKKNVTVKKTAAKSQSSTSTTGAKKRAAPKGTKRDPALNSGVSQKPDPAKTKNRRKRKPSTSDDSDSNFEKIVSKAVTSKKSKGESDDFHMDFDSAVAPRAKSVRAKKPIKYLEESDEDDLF
Procedure: as §1

[1] = tested on: double stranded oligonucleotide CAATCGGATCGAATTCGATCCGATTG; assay: DNA intercalation by FID (Fluorescence Intercalator Displacement, thiazole orange); assay type: binding; conditions: 10 μM compound
Procedure: as §1

CK2 = assay: cellular CK2 activity assay (YFP-based CK2 activity reporter in HeLa cells); assay type: cell-based, human; conditions: 24 hours incubation, FIGS. 2A and 2B
Procedure: Cellular CK2 activity assay: The plasmid pEYFPc1 expressing a chimeric YFP-based CK2 activity reporter was designed by adding six CK2 consensus phosphorylation sites at the C terminus of the YFP protein (pEYFPc1-SβS). pEYFPc1-SβS was obtained from pEYFPc1-CK2β after two subsequent rounds of mutations with the Quickchange-Site Directed mutagenesis kit (Stratagene) using for mutagenesis 1:
Then, the cells were collected and the washed pellets were solubilized for […] in ice with 100μΛ of lysis buffer (Tris 50 mM pH=7.4, 0.15 M NaCl, EDTA 2 mM, Triton X100 1/100, phosphatase inhibitor cocktail 2 (Sigma) 1/100, and leupeptine, aprotinine, AEBSF according to the manufacturer recommendations).

HeLa cells [2] = assay: inhibition of HeLa cell proliferation (CellTiter-Glo viability); assay type: cell-based, human; conditions: 48 hours treatment, FIG. 3
Procedure: (§2) 1. […] The following day, the culture medium was replaced with fresh medium (Dulbecco's medium, Invitrogen Life Technologies, Inc., supplemented with 10% (v/v) fetal calf serum (FBS, BioWest)), containing increasing concentration of inhibitors or an equivalent amount of DMSO as control. Two days later, cell viability was measured with the CellTiter-Glo® Luminescent Cell Viability Assay (Promega) according to the manufacturer recommendations. • The inhibition of U373 cells proliferation is assessed with the same protocol that HeLa cells: one day after plating, U373 cells are treated with 5 μM of Compound 1, Compound 2 or DMSO. Results are given relative to the luminescence recorded for DMSO.

U373 cells [3] = assay: inhibition of U373 cell proliferation (CellTiter-Glo viability); assay type: cell-based, human; conditions: 5 μM, 48 hours treatment, FIG. 4
Procedure: as §2

HeLa cells [4] = assay: cell cycle distribution analysis (propidium iodide), HeLa; assay type: cell-based, human; conditions: 5 μM, 24 hours
Procedure: (§3) Cells previously treated with Compound 1 and Compound 2 in example 4 are then submitted to a cell cycle analysis following propidium iodide incorportation.
(§4) Cell cycle distribution analysis: cells were plated in 6-well plates. The following day, cells were treated with 5 μM compounds or an equivalent amount of DMSO. After 24 hours, cells were harvested, fixed with ethanol 70% for 30 minutes, and labeled with propidium iodide 10 μg/mL for 30 min. DNA content was analysed with FACScalibur and Cell Quest software.

U373 cells [5] = assay: cell cycle distribution analysis (propidium iodide), U373; assay type: cell-based, human; conditions: 5 μM, 24 hours
Procedure: as §3, §4

U373 cells [6] = assay: colony formation assay by soft agar culture; assay type: cell-based; conditions: Homo sapiens, U373 MG, 360 h, 15 days
Procedure: The effect of compound on tumor cell tumorigenesis is tested on a colony formation assay.
The inhibition of colony formation assay by soft agar culture is performed as follows: U373 cells were poured on a 0.6% agar-DMEM-10% FBS layer, imbedded in 0.3% agar-DMEM-10% FBS, containing compounds (5 μM) or equivalent amount of DMSO. Number of colonies (more than 20 cells) was counted 15 days later in 10 fields/well. Experiment was done in duplicate at least twice.

U373 cells [7] = assay: in vivo inhibition of tumour growth, U373 xenograft in athymic nude mice
Procedure: All experimental procedures adhered to local ethical committee (Comité régional d'éthique pour l'Expérimentation animale CREEA, Rhône Alpes—protocol n°286). Female Harlan athymic nude mice (6-8 weeks) were inoculated s.c. into the right flank with 7.5×10^5 U373 cells. When tumors reaches±50 mm^3 (volume=length×width×height), animals were treated i.p. 3 times weekly (every two days) for 2 weeks, with Compound 1 (0.14 mg/100 μL/injection-4 mice) dissolved in PEG3350 22.5%, BSA 0.45% or equivalent DMSO (10% final-3 mice) dissolved in same buffer (control group). Body weight and tumor volume were determined twice weekly. The experiment was terminated when tumor volume was about 1000 mm^3. Results are presented as mean±standard error of the mean (SEM).

Chain of CK2α (P68400 whole entry): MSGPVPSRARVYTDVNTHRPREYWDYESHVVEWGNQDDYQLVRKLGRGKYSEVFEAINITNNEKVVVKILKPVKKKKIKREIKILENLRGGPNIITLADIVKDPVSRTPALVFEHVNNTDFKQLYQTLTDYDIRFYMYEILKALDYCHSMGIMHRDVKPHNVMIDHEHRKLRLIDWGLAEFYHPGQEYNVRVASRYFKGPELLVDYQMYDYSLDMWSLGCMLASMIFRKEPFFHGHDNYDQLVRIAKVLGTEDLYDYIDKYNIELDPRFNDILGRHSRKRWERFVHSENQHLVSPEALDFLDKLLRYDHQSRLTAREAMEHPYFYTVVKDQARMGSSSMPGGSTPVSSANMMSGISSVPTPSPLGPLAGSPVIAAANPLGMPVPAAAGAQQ

Row | SMILES | % remaining CK2 activity (10 μM) (CK2α) | IC50 (CK2α) | % remaining c-kit activity (10 μM) (c-Kit) | % remaining topoisomerase II activity (10 μM) (topoisomerase IIα) | % DNA intercalation (10 μM) [1] | phosphorylated CK2 reporter isoform (CK2) | inhibition of HeLa cell proliferation (HeLa cells [2]) | reduction of U373 cell proliferation (U373 cells [3]) | apoptotic cells (HeLa cells [4]) | cell cycle effect (HeLa cells [4]) | cell cycle effect (U373 cells [5]) | inhibition at 5 µM (U373 cells [6]) | tumor size, times smaller than DMSO group (U373 cells [7]; 15 days post first compound injection, i.p. 0.14 mg/injection) | tolerability (U373 cells [7]; at the doses applied) | variations in body weight (U373 cells [7]; i.p. 0.14 mg/injection, 3 times weekly for 2 weeks) | tumor incidence compared to DMSO (U373 cells [7]; i.p. 0.14 mg/injection, 3 times weekly for 2 weeks, all time points)
1 | Cc1cnc(Cl)c2c1[nH]c1c3ccc(O)cc3ccc12 [Compound 1] | 1.4% | 1500 nM | 60.4% | 106.8% | 62.0% | disappeared in a dose-dependent manner | strong inhibition of tumour cell proliferation even at low doses | potent to reduce cell proliferation | concomitant increase of apoptotic cells | cell cycle arrest with a substantial accumulation in G2/M-phase | cell cycle arrest with a substantial accumulation in G2/M-phase | 50% | 4.7 times | well tolerated | not statistically significant | significantly reduced
2 | Cc1cnc(Cl)c2c1[nH]c1ccc3cc(O)ccc3c12 [Compound 2] | 3.5% | 670 nM | 16.9% | 77% | 66.4% | disappeared in a dose-dependent manner | strong inhibition of tumour cell proliferation even at low doses | potent to reduce cell proliferation | concomitant increase of apoptotic cells | cell cycle arrest with a substantial accumulation in G2/M-phase | cell cycle arrest with a substantial accumulation in G2/M-phase | – | – | – | – | –

From patent publication US8686144B2, “Condensed pyridine derivatives useful as potent inhibitors of the protein kinase CK2” (Commissariat a l'Energie Atomique et aux Energie Alternative, priority 2009, dated 2014)
